Biological target: T1, Dual specificity protein phosphatase 6 (Rattus norvegicus, UniProt Q64346)
T1 sequence (Q64346 whole entry): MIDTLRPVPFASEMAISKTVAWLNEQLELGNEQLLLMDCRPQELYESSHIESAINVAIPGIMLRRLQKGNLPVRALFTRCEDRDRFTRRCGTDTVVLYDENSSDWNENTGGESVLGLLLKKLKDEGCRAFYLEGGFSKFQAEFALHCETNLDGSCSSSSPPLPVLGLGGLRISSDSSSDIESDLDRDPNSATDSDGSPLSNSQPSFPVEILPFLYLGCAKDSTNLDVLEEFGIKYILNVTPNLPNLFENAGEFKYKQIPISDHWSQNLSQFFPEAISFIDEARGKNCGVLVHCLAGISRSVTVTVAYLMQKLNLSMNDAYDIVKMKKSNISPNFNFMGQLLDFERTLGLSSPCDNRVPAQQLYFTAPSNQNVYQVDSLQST
Assay: MKP-3 phosphatase inhibitors, SAR follow-up, biochemical (AID 1055)
Conditions: pH 7; 23 °C

IC50: 7.9 µM
SMILES: Cc1ccc2c(c1)C1C=CCC1C(C(=O)O)N2 (stereo unspecified) [MLS-0067149.0001]

Reference: BindingDB's records for doi:10.7270/Q2N87841 (Burnham Center For Chemical Genomics, 2008)
